Patent US8703438B2, “Ligand binding stabilization method for drug target identification” (The Regents of the University of California, priority 2008, dated 2014)

Tests used:
[1] = Precipitation in yeast culture medium; assay type: physicochemical; settings: final concentration ˜1 mM
Description: (§1) For cytotoxic and cytostatic small molecules, deletion mutants in their target often would have increased sensitivity to the drug (and overexpression could decrease sensitivity). Indeed, this is the basis for the elegant haploinsufficiency profiling (HIP) strategy (Giaever et al. (1999) Nat Genet. 21: 278-283). However, an inherent limitation of this type of fitness-based methods is that they are applicable only to drugs that affect cell growth/viability, i.e., cytotoxic or cytostatic drugs. […] A key advantage of DARTS is that it is independent of the drug's biological phenotype, and thus is not limited to the studies of cytotoxic/cytostatic drugs or drugs that induce transcriptional or morphological changes which have been the limitation of previous methods.

[2] = molecular target: T1, in vitro translated firefly luciferase (Photinus pyralis, UniProt P08659); assay: Effect on firefly luciferase reaction in luciferase assay kits; assay type: biochemical
T1 construct: made in house
T1 sequence (P08659 whole entry): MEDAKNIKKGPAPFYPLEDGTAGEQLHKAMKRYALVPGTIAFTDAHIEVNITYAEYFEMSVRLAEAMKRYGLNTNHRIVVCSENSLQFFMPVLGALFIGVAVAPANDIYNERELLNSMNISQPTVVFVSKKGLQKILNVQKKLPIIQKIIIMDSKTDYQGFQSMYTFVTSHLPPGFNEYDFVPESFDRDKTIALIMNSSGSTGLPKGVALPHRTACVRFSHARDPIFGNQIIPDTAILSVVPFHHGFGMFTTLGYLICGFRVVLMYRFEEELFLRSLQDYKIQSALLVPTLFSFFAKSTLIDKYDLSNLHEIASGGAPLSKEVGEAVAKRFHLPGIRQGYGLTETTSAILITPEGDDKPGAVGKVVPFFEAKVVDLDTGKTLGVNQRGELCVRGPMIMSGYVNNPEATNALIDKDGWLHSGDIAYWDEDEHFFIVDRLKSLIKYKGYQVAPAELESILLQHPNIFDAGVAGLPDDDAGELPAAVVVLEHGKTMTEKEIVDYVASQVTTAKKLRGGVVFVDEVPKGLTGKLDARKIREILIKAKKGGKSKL
Description: Our data in FIG. 4D were based on the Dual-Glo kit, in which the luciferase reaction is not affected by resveratrol. Also, there was no resveratrol added to the in vitro luciferase assay reactions in FIG. 4D. Rather, resveratrol was used to treat cells and washed away before the cells were lysed for luciferase assay.

[3] = molecular target: T2, proteins of S. cerevisiae BY4742 cell lysates (Saccharomyces cerevisiae, UniProt P10081); assay: DARTS with yeast cell lysates incubated in vitro with resveratrol, mass spectrometry of protected bands; assay type: binding; settings: 1 mM resveratrol, Upper band
T2 construct: endogenous in cells; host or cells: S. cerevisiae BY4742
T2 sequence (P10081 whole entry): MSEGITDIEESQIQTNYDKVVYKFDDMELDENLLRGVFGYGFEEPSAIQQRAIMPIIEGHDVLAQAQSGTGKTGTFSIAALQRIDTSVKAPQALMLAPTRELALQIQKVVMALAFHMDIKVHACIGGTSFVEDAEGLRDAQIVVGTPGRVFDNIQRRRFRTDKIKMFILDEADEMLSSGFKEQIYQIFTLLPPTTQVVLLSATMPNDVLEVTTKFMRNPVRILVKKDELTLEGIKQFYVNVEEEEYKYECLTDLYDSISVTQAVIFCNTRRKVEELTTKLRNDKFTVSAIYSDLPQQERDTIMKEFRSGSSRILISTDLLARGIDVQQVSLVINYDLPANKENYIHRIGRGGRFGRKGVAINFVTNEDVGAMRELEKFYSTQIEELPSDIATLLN
Description: (§2) For DARTS using yeast cell lysates incubated in vitro with resveratrol (FIG. 4B), S. cerevisiae BY4742 cells were used.
(§3) Gel bands were cut out and prepared for mass spec analysis with trypsin digestion as described in SI. Peptides were analyzed by LC/MS/MS on a Thermo LTQ-Orbitrap mass spectrometer with an Eksigent LC pump. For quantitative comparison of protein and peptide abundances, MS spectra were analyzed using the differential workflow of Rosetta Elucidator (Rosetta Inpharmatics) (54). Annotation was performed using PeptideTeller and ProteinTeller (see SI).
(§4) Proteins were initially identified by searching the spectra against the human International Protein Index database (version 3.46) and the S. cerevisiae Swissprot database (May 2008) using the SEQUEST algorithm (Eng et al. (1994) J Am Soc Mass Spectrom 5: 976-989) integrated into the Bioworks software package. Each peptide met the following criteria: XCorr ≧2 (+1), ≧3 (+2), ≧4 (+3), ≧5 (+4), and DeltaCN>0.1. For quantitative comparison of protein and peptide abundances, MS spectra were analyzed using the differential workflow of the Rosetta Elucidator software system (Rosetta Inpharmatics) (Neubert et al. (2008) J Proteome Res 7: 2270-2279). Annotation was performed using PeptideTeller and ProteinTeller with a minimum probability of 0.99 and predicted error of 0.0. Protein ratio data were generated with a P-value cutoff of 0.01 for all proteins with a peptide number >1. Intensity scaling was performed against the mean of feature signals, with 10% of outliers removed from the baseline dataset. Similar results were obtained in analysis without intensity scaling (FIG. 9A).
(§5) For the DARTS experiment using yeast cell lysates incubated in vitro with resveratrol, BY4742 cells were suspended in yeast extraction buffer (Grant et al. (1999) Meth. Mol Biol 119: 311-317) [(40 mM HEPES/KOH pH 7.5, 350 mM NaCl, 0.5 mM DTT, 10% glycerol, 0.1% Tween-20) supplemented with Roche complete protease inhibitor cocktail (Roche Diagnostics, Indianapolis, Ind.)]. Cell pellets were broken with glass beads for 2×40 s at 4° C. in a FastPrep-24 (MP Biomedicals, Solon, Ohio). Whole cell lysates were collected after centrifugation (1500 rpm, 10 min). Lysates were incubated with ethanol control or 1 mM resveratrol for 30 min at room temperature. Samples were then divided into two aliquots, which underwent proteolysis with thermolysin or mock proteolysis.

[4] = system: proteins of S. cerevisiae BY4742 cell lysates; assay: as above; assay type: binding; settings: 1 mM resveratrol
Description: as §2, §3, §4, §5

[5] = system: yeast (wild type, tif1 or tif2 deletion mutants); assay: Yeast growth inhibition; assay type: cell-based; settings: final concentration ˜1 mM
Description: as §1

Question: With Oc1ccc(C=Cc2cc(O)cc(O)c2)cc1 [resveratrol] as the molecule, how does the “behaviour in culture medium” value [1] read?
Answer: Its value is “precipitated out of the culture medium”.

Question: What about the firefly luciferase readout ([2]; Bright-Glo kit (Promega #E2610)) of the same molecule?
Answer: Its firefly luciferase readout is “significantly decreased”.

Question: And the firefly luciferase readout ([2]; Dual-Glo kit (Promega #E2940))?
Answer: The firefly luciferase readout was “little or no inhibition”.

Question: And the “Fold Change, ATP-dependent RNA helicase eIF4A” value [3]?
Answer: Its value is 1.961.

Question: What about the “Fold Change, 40S ribosomal protein S12” value ([4]; Lower band) of the same molecule?
Answer: Its value is 2.07.

Question: What about the “Fold Change, 40S ribosomal protein S15” value ([4]; Lower band) of the same molecule?
Answer: Its value is 3.677.

Question: What about the “Fold Change, 40S ribosomal protein S16” value ([4]; Lower band) of the same molecule?
Answer: The value was 2.906.

Question: And the “Fold Change, 40S ribosomal protein S18” value ([4]; Lower band)?
Answer: The value was 2.412.

Question: And the “Fold Change, 40S ribosomal protein S19” value ([4]; Lower band)?
Answer: The value was 1.965.

Question: What about the “Fold Change, 40S ribosomal protein S24” value ([4]; Lower band) of the same molecule?
Answer: The value was 1.481.

Question: And the “Fold Change, 40S ribosomal protein S26-B” value ([4]; Lower band)?
Answer: Its value is 2.429.

Question: What about the “Fold Change, 60S ribosomal protein L14-A” value ([4]; Lower band) of the same molecule?
Answer: Its value is 1.614.

Question: What about the “Fold Change, 60S ribosomal protein L25” value ([4]; Lower band) of the same molecule?
Answer: Its value is 3.564.

Question: What about the “Fold Change, 60S ribosomal protein L26-A” value ([4]; Lower band) of the same molecule?
Answer: Its value is 9.181.

Question: And the “Fold Change, 60S ribosomal protein L26-B” value ([4]; Lower band)?
Answer: The value was 11.107.

Question: What about the “Fold Change, 60S ribosomal protein L34” value ([4]; Lower band) of the same molecule?
Answer: Its value is 2.383.

Question: And the “Fold Change, 60S ribosomal protein L35” value ([4]; Lower band)?
Answer: Its value is 3.774.

Question: What about the “Fold Change, Histone H2A” value ([4]; Lower band) of the same molecule?
Answer: Its value is 3.002.

Question: And the “Fold Change, Histone H2B” value ([4]; Lower band)?
Answer: The value was 2.229.

Question: And the “Fold Change, Ornithine aminotransferase” value ([4]; Lower band)?
Answer: Its value is 2.531.

Question: What about the “Fold Change, 40S ribosomal protein S23” value ([4]; Upper band) of the same molecule?
Answer: The value was 4.84.

Question: And the “Fold Change, 40S ribosomal protein S26” value ([4]; Upper band)?
Answer: The value was 4.701.

Question: What about the “Fold Change, 60S ribosomal protein L21-A” value ([4]; Upper band) of the same molecule?
Answer: Its value is 2.777.

Question: And the “Fold Change, 60S ribosomal protein L24” value ([4]; Upper band)?
Answer: The value was 6.05.

Question: What about the “Fold Change, 60S ribosomal protein L25” value ([4]; Upper band) of the same molecule?
Answer: The value was 2.713.

Question: And the “Fold Change, 60S ribosomal protein L27-A” value ([4]; Upper band)?
Answer: The value was 2.554.

Question: What about the “Fold Change, 60S ribosomal protein L28” value ([4]; Upper band) of the same molecule?
Answer: Its value is 1.804.

Question: And the “inhibition of yeast growth” value [5]?
Answer: The value was “did not cause detectable inhibition of yeast growth”.
